We go through eight compounds from ChEMBL document CHEMBL3217570, “A class of novel AA-Trp-Trp-OBzl: synthesis, in vitro anti-proliferation, in vivo anti-tumor action, and intercalation mechanism” (Medchemcomm, 2011).

Data set [1] relates to CCRF S-180. The experiment in a line: Antitumor activity against mouse S180 cells allografted in ICR mouse assessed as tumor growth inhibition at 8.9 mg/kg, ip qd for 7 days relative to control. It is filed as functional. As to conditions: CCRF S-180, ip, 168 h, route intraperitoneal, read-out: TGI.
For data set [2], the system named is B16. Put plainly: Antiproliferative activity against mouse B16 cells after 48 hrs by MTT assay. It is filed as functional, cell-based. As to conditions: B16, 48 h. A general note: Tetrazolium dyes change colour on reduction, which living cells bring about.
Data set [3] relates to Calf thymus DNA. The experiment in a line: Binding affinity to 70 uM of calf thymus DNA assessed as decrease in fluorescence intensity at 50 uM by fluorescence spectra analysis. As to conditions: Bos taurus. In kind it is nucleic-acid assay. Set-up: scale not given: the % may be the effect or the level left.
The subject of data set [4] is Calf thymus DNA. Put plainly: Binding affinity to calf thymus DNA assessed as increase of DNA […] at compound-DNA ratio up to 0.36. In kind it is nucleic-acid assay. As to conditions: Bos taurus.
Data set [5] deals with Mus musculus. Put plainly: Neurotoxicity in ICR mouse assessed as neurotoxic behavior up to 500 mg/kg, ip after 7 days. It is filed as toxicity, organism-based. Also noted: dose 500 mg/kg, route intraperitoneal. As to conditions: in vivo, 168 h.
For data set [6], the system named is Calf thymus DNA. Put plainly: Binding affinity to 10 to 70 uM of calf thymus DNA assessed as decrease in fluorescence intensity at 50 uM by fluorescence spectra analysis. It is filed as nucleic-acid assay. As to conditions: Bos taurus.
Data set [7] relates to Mus musculus. The experiment in a line: Toxicity in mouse S180 cells allografted ICR mouse assessed as spleen index at 8.9 mg/kg, ip qd for 7 days relative to control. In kind it is organism-based, CCRF S-180. Set-up: dose 8.9 mg/kg, route intraperitoneal. As to conditions: in vivo, 168 h.
Data set [8] has as its system K562. The experiment in a line: Antiproliferative activity against human K562 cells after 48 hrs by MTT assay. As to conditions: K562, 48 h. It is filed as functional, cell-based.
Data set [9] relates to Calf thymus DNA. The experiment in a line: Binding affinity to calf thymus DNA assessed as melting temperature at 10 uM. It is filed as nucleic-acid assay. As to conditions: Bos taurus.
The subject of data set [10] is CCRF S-180. The experiment in a line: Antitumor activity against mouse S180 cells allografted in ICR mouse assessed as tumor growth inhibition at 0.089 mg/kg, ip qd for 7 days relative to control. As to conditions: CCRF S-180, ip, 168 h, route intraperitoneal, read-out: TGI. It is filed as functional.
The nature of data set [11]: Acute toxicity in ip dosed ICR mouse after 7 days. It is filed as organism-based. As to conditions: in vivo.
The test system of data set [12] is Mus musculus. The experiment in a line: Toxicity in ICR mouse assessed as mortality up to 500 mg/kg, ip after 7 days. In kind it is organism-based. Also noted: dose 500 mg/kg, route intraperitoneal. As to conditions: in vivo, 168 h.
Data set [13] concerns Mus musculus. Put plainly: Toxicity in mouse S180 cells allografted ICR mouse assessed as kidney weight at 8.9 mg/kg, ip qd for 7 days relative to control. It is filed as organism-based, CCRF S-180. Also noted: dose 8.9 mg/kg, route intraperitoneal. As to conditions: in vivo, 168 h.
In data set [14] the test system is CCRF S-180. The experiment in a line: Antitumor activity against mouse S180 cells allografted in ICR mouse assessed as tumor growth inhibition at 0.89 mg/kg, ip qd for 7 days relative to control. It is filed as functional. As to conditions: CCRF S-180, ip, 168 h, route intraperitoneal, read-out: TGI.
For data set [15], the system named is Mus musculus. Put plainly: Toxicity in mouse S180 cells allografted ICR mouse assessed as liver weight at 8.9 mg/kg, ip qd for 7 days relative to control. It is filed as organism-based, CCRF S-180. Also noted: dose 8.9 mg/kg, route intraperitoneal. As to conditions: in vivo, 168 h.
The test system of data set [16] is CCRF S-180. Put plainly: Antitumor activity against mouse S180 cells allografted in ip dosed ICR mouse assessed as tumor growth inhibition administered qd for 7 days relative to control. In kind it is functional, organism-based.
Data set [17] concerns H22. Put plainly: Antiproliferative activity against mouse H22 cells after 48 hrs by MTT assay. It is filed as functional, cell-based. As to conditions: H22, 48 h.
The test system of data set [18] is Mus musculus. The experiment in a line: Toxicity in mouse S180 cells allografted ICR mouse assessed as increase of body weight at 8.9 mg/kg, ip qd for 7 days relative to control. In kind it is organism-based, CCRF S-180. As to conditions: in vivo, 168 h. Also noted: dose 8.9 mg/kg, route intraperitoneal.
Data set [19] relates to Mus musculus. The experiment in a line: Toxicity in ICR mouse assessed as changes in organs up to 500 mg/kg, ip after 7 days by necropsy analysis. It is filed as organism-based. Set-up: dose 500 mg/kg, route intraperitoneal. As to conditions: in vivo, 168 h.
The subject of data set [20] is Mus musculus. The experiment in a line: Toxicity in mouse S180 cells allografted ICR mouse assessed as brain weight at 8.9 mg/kg, ip qd for 7 days relative to control. In kind it is organism-based, CCRF S-180. Also noted: dose 8.9 mg/kg, route intraperitoneal. As to conditions: in vivo, 168 h.
Data set [21] deals with CCRF S-180. Put plainly: Antiproliferative activity against mouse S180 cells after 48 hrs by MTT assay. As to conditions: CCRF S-180, 48 h. It is filed as functional, cell-based.
Data set [22] has as its system HepG2. The experiment in a line: Antiproliferative activity against human HepG2 cells after 48 hrs by MTT assay. It is filed as functional, cell-based. As to conditions: HepG2, 48 h.

pIC50: −log10 of the molar value. Calls of active or inactive are those of the source. The rule behind the calls is not given here. Residues, ends and D or L forms follow the SMILES beside them. *: point of attachment. OBn = c1ccc(CO*)cc1 Where only a bound is given, the exact number is not on record here.

Broadly, the pIC50 is the negative decadic logarithm of the IC50, by convention in mol/L. The LD50 is the dose expected to kill half of the subjects tested.

Turning to `NC(=O)C[C@H](N)C(=O)N[C@@H](Cc1c[nH]c2ccccc12)C(=O)N[C@@H](Cc1c[nH]c2ccccc12)C(=O)OCc1ccccc1` (H-Asn-Trp-Trp-OBn), in data set [1], the inhibition in vivo at 8.9 mg/kg is 85.1%. Further, the pIC50 in [2] was 4.86; in [8], 4.96; in data set [17] it was 4.96; in data set [21], 4.87; in data set [22] it was 4.93. In addition, the Activity in [3] is 35.3%; in data set [5], “Non-toxic”; in [7], “Non-toxic”; in [12] it was “Non-toxic”; in data set [13] it was “Non-toxic”; in data set [15], “Non-toxic”. Also, the Activity entry is reported as “Toxic” in data set [18], “Non-toxic” in [19] and “Non-toxic” in data set [20]. The result in [4] and in [6] was Active. The Tm in [9] came to 20.8 °C. The inhibition in vivo at 0.089 mg/kg in [10] came out at 26.6%. In addition, the LD50 at 168 h in [11] was above 500 mg/kg. Further, the inhibition in vivo at 0.89 mg/kg in data set [14] is 46.7%. The TGI entry in data set [16] was “Dose-dependent effect”.
For `CC[C@H](C)[C@H](N)C(=O)N[C@@H](Cc1c[nH]c2ccccc12)C(=O)N[C@@H](Cc1c[nH]c2ccccc12)C(=O)OCc1ccccc1` (H-Ile-Trp-Trp-OBn), the inhibition in vivo at 8.9 mg/kg in [1] turned out to be 80.1%. The pIC50 in [2] is 4.76; in data set [8], 4.79; in [17], 4.79; in data set [21] it was 4.82; in [22], 4.82. Besides, the Activity result in [5] was “Non-toxic”; in data set [7] it was “Non-toxic”; in data set [12] it was “Non-toxic”; in [13], “Non-toxic”; in [15], “Non-toxic”; in data set [18], “Toxic”. Moreover, the Activity entry in [19] and in data set [20] was “Non-toxic” each time. This compound showed an LD50 at 168 h in [11] above 500 mg/kg.
`CSCC[C@H](N)C(=O)N[C@@H](Cc1c[nH]c2ccccc12)C(=O)N[C@@H](Cc1c[nH]c2ccccc12)C(=O)OCc1ccccc1` (H-Met-Trp-Trp-OBn): the inhibition in vivo at 8.9 mg/kg in data set [1] stood at 61.5%. For the same compound, the pIC50 is 4.60 in [2]; 4.77 in data set [8]; 4.76 in data set [17]; 4.70 in [21]; 4.61 in data set [22]. Also, the Activity result is given as “Non-toxic” in data set [5]; “Non-toxic” in [7]; “Non-toxic” in data set [12]; “Non-toxic” in data set [13]; “Non-toxic” in [15]; “Toxic” in data set [18]. For the same compound, the Activity result in [19] and in [20] was “Non-toxic” each time. In data set [11], this compound came in with an LD50 at 168 h above 500 mg/kg.
Regarding `N[C@@H](Cc1ccccc1)C(=O)N[C@@H](Cc1c[nH]c2ccccc12)C(=O)N[C@@H](Cc1c[nH]c2ccccc12)C(=O)OCc1ccccc1` (H-Phe-Trp-Trp-OBn), in [1], the inhibition in vivo at 8.9 mg/kg turned out to be 24.7%. Moreover, the negative-log IC50 (pIC50) is 4.47 in data set [2]; 4.36 in [8]; 4.43 in [17]; 4.47 in [21]; 4.39 in data set [22]. Besides, the Activity result in data set [5] was “Non-toxic”; in data set [7], “Non-toxic”; in data set [12], “Non-toxic”; in data set [13], “Non-toxic”; in [15], “Non-toxic”; in data set [18], “Toxic”. Moreover, the Activity entry in [19] and in data set [20] was “Non-toxic” each time. Also, in data set [11], the LD50 at 168 h is above 500 mg/kg.
For the compound `N[C@@H](CO)C(=O)N[C@@H](Cc1c[nH]c2ccccc12)C(=O)N[C@@H](Cc1c[nH]c2ccccc12)C(=O)OCc1ccccc1` (H-Ser-Trp-Trp-OBn), in [1], the inhibition in vivo at 8.9 mg/kg amounted to 48.2%. Moreover, the pIC50 in data set [2] is 4.32; in data set [8], 4.59; in data set [17], 4.60; in [21] it was 4.58; in [22] it was 4.59. The Activity result in data set [5] was “Non-toxic”; in [7], “Non-toxic”; in data set [12] it was “Non-toxic”; in [13] it was “Non-toxic”; in data set [15], “Non-toxic”; in [18], “Toxic”. Further, the Activity result in data set [19] and in data set [20] was “Non-toxic” each time. Also, the LD50 at 168 h in data set [11] is above 500 mg/kg.
As to `N[C@@H](Cc1ccc(O)cc1)C(=O)N[C@@H](Cc1c[nH]c2ccccc12)C(=O)N[C@@H](Cc1c[nH]c2ccccc12)C(=O)OCc1ccccc1` (H-Tyr-Trp-Trp-OBn), in data set [1], the inhibition in vivo at 8.9 mg/kg came to 53.4%. Besides, the pIC50 in data set [2] was 4.61; in data set [8], 4.67; in [17], 4.64; in data set [21] it was 4.64; in data set [22] it was 4.63. The Activity entry in [5] is “Non-toxic”; in data set [7], “Non-toxic”; in data set [12] it was “Non-toxic”; in [13] it was “Non-toxic”; in data set [15] it was “Non-toxic”; in [18] it was “Toxic”. Besides, the Activity result in [19] and in [20] was “Non-toxic” each time. The same compound showed an LD50 at 168 h in [11] above 500 mg/kg.
Take `CC(C)[C@H](N)C(=O)N[C@@H](Cc1c[nH]c2ccccc12)C(=O)N[C@@H](Cc1c[nH]c2ccccc12)C(=O)OCc1ccccc1` (H-Val-Trp-Trp-OBn): the inhibition in vivo at 8.9 mg/kg in data set [1] was found to be 33.5%. Besides, the pIC50 in [2] was 4.30; in [8], 4.39; in [17] it was 4.44; in [21], 4.44; in [22], 4.43. The Activity result was “Non-toxic” in [5]; “Non-toxic” in data set [7]; “Non-toxic” in [12]; “Non-toxic” in data set [13]; “Non-toxic” in [15]; “Toxic” in [18]. Moreover, the Activity entry in data set [19] and in data set [20] was “Non-toxic” throughout. Moreover, the LD50 at 168 h in data set [11] is above 500 mg/kg.
In the case of `Nc1ccn([C@@H]2O[C@H](CO)[C@@H](O)[C@@H]2O)c(=O)n1` [CYTARABINE], in data set [1], the inhibition in vivo at 8.9 mg/kg is 31.9%. Besides, the pIC50 in data set [2] is 4.31; in data set [8] it was 4.36; in [17], 4.42; in data set [21], 4.39; in data set [22] it was 4.42. Moreover, the inhibition in vivo at 0.089 mg/kg in data set [10] was 7.86%. Further, the inhibition in vivo at 0.89 mg/kg in data set [14] was 20.6%.
